Among the data in ChEMBL document CHEMBL1201862, “PubChem BioAssay data set” (2004) are AC50, IC50 and EC50 values, retold here.

Active and inactive are the calls of the source.

The test system of series [1] is INS1. The experiment in a line: beta cell apoptosis inhibitors, cytokine rescue, dose response, luminescence, retest (AID 449756).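 Note: cell death triggered by IL-1 beta plus TNF-alpha plus IFN-gamma mixture; protective hits raise ATP signal compared with cytokine alone wells.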 The series is classed as functional, cell-based. Particulars: Rattus norvegicus.
The target in series [2] is T1, Ubiquitin-conjugating enzyme E2 N (Homo sapiens, UniProt P61088).
T1 sequence (P61088 whole entry): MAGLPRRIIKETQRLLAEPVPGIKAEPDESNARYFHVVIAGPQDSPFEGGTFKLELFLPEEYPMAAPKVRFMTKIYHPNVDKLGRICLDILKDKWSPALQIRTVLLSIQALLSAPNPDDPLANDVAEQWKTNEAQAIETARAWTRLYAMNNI
The series is classed as functional.

For series [3], the target named is T2, Apoptotic protease-activating factor 1 (Homo sapiens, UniProt O14727).
T2 sequence (O14727 whole entry): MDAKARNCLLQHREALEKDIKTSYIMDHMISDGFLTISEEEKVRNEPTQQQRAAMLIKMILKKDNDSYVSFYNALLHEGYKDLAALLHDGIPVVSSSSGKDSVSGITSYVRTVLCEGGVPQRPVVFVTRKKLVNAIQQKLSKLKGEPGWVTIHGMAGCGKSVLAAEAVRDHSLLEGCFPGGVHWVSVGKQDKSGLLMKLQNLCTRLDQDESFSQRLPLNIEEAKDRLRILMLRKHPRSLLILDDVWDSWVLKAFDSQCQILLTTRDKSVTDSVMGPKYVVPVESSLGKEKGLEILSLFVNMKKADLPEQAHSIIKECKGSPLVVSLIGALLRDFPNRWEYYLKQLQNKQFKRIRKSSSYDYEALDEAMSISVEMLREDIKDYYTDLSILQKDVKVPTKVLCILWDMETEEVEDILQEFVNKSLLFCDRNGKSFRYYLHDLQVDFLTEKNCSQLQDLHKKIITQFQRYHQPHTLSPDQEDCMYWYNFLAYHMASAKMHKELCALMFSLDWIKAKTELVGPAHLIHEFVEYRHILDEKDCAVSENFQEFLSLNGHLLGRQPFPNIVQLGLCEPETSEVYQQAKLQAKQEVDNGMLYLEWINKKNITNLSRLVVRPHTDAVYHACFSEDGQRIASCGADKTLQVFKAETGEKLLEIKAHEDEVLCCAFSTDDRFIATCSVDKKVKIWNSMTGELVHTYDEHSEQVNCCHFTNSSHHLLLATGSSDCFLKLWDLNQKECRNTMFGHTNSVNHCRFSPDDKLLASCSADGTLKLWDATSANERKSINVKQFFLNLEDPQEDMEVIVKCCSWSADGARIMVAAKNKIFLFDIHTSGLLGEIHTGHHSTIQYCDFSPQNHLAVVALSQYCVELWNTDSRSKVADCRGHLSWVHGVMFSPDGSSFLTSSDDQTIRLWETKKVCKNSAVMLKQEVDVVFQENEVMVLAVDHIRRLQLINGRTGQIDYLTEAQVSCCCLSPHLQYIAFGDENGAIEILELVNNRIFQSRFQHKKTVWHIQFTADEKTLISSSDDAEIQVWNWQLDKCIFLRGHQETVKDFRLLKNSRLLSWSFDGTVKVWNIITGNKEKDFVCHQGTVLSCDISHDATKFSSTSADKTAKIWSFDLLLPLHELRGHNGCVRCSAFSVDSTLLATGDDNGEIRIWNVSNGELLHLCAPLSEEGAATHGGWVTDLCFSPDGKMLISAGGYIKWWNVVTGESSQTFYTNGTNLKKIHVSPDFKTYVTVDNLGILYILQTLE
The series is classed as functional.

Series [4] has as its target Heat shock protein HSP 90-alpha (Homo sapiens, UniProt P07900). In kind it is functional, organism-based.
For series [5], the target named is T3, DNA repair protein RAD52 homolog (Homo sapiens, UniProt P43351).
T3 sequence (P43351 whole entry): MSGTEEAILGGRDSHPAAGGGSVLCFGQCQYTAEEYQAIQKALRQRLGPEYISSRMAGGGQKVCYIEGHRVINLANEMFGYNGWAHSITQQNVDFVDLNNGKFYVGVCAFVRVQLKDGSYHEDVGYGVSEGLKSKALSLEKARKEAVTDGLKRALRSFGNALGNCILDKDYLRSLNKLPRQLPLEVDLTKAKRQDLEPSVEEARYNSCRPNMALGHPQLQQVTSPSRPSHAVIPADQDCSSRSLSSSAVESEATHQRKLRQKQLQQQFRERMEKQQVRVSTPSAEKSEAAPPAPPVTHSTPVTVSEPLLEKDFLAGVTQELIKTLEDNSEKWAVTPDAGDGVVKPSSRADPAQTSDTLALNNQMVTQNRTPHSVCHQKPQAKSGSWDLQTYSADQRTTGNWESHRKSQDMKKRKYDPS
The series is classed as functional, biochemical.

In series [6] the target is T1, Ubiquitin-conjugating enzyme E2 N. The series is classed as functional. The source holds these as a separate data set.
For series [7], the target named is T4, Bcl-2-related protein A1 (Mus musculus, UniProt Q07440).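 Note: confirmatory dose–response counterscreen on Bfl-1, used to check hits from a UBC13 polyubiquitin inhibitor campaign.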
T4 sequence (Q07440 whole entry): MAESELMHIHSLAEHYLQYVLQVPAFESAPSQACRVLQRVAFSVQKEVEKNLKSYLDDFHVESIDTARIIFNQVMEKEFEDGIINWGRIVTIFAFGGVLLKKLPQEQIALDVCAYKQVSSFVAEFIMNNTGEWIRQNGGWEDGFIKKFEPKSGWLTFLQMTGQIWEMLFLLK
In kind it is functional.

Series [8] deals with Cytochrome P450 3A4 (Homo sapiens, UniProt P08684).
Chain of Cytochrome P450 3A4 (P08684 whole entry): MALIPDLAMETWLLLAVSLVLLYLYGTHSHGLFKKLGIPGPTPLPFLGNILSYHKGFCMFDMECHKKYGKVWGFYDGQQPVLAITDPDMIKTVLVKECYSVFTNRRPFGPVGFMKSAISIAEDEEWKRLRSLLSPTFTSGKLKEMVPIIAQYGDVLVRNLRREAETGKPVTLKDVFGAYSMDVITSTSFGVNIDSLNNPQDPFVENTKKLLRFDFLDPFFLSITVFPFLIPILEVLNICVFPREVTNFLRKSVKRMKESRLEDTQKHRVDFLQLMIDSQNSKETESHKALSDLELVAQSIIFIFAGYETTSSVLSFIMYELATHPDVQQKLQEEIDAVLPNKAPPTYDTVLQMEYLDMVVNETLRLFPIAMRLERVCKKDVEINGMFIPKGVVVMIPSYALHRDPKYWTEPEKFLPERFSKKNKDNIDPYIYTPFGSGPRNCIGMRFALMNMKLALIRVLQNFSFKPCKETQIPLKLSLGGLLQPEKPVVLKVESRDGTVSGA
Series [9] deals with T5, Endoribonuclease toxin MazF (Escherichia coli K-12, UniProt P0AE70).
T5 sequence (P0AE70 whole entry): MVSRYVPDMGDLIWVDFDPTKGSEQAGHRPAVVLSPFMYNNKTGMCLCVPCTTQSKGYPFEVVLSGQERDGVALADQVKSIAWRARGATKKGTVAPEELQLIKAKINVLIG
The series can be described thus: MazF toxin RNase activators, dose response, biochemical, fluorescence, single-stranded RNA substrate, uHTS hits (AID 588481). In kind it is functional.

Series [10] concerns the target T5, Endoribonuclease toxin MazF. The series can be described thus: fluorescent RNA oligo signal without MazF, dose response, counter-screen for MazEF activator project, biochemical, fluorescence, single-stranded RNase substrate (AID 588502). The series is classed as functional.
For series [11], the target named is Cytochrome P450 2C9 (Homo sapiens, UniProt P11712).
Chain of Cytochrome P450 2C9 (P11712 whole entry): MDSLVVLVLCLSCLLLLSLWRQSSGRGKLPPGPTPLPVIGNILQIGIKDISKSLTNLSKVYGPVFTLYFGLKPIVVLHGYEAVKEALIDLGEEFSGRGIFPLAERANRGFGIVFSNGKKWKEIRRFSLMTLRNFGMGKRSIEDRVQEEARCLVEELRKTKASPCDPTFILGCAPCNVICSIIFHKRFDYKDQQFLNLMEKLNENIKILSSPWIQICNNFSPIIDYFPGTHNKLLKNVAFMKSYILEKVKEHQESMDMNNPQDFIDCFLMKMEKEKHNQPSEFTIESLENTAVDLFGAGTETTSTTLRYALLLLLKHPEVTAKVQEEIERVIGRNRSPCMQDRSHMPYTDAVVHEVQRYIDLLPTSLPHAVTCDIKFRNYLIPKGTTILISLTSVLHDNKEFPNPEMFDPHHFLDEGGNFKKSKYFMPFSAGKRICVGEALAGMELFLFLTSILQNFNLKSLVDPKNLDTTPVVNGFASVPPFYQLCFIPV
In series [12] the target is Cytochrome P450 2C19 (Homo sapiens, UniProt P33261). The experiment in a line: Cytochrome panel assay with activity outcomes. Panel member name: p450-cyp2c19 Compounds with AC50 equal or less than 10 uM are considered active. The series is classed as functional. Particulars: read-out: AC50.
Chain of Cytochrome P450 2C19 (P33261 whole entry): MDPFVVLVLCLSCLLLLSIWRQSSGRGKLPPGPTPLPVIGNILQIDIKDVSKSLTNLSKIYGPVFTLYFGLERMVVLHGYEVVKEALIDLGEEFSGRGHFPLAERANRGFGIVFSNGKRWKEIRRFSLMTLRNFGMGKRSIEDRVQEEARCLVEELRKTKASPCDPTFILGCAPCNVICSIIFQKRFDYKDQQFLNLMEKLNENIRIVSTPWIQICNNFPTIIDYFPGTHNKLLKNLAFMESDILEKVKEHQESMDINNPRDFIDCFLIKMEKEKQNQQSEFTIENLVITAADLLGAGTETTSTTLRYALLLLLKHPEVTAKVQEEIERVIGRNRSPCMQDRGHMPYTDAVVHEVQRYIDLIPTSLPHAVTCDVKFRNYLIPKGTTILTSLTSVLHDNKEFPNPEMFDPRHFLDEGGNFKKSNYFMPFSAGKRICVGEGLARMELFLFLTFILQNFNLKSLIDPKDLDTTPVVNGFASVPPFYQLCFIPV
Series [13] in a line: NIH-3T3 fibroblast cytotoxicity, dose response, cytotoxicity control, cell-based, fluorescence, Alamar Blue, secondary assay (AID 2327).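 Note: NIH-3T3 mouse fibroblasts cultured with fluconazole at 8 µg/mL.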 The series is classed as functional.
The target of series [14] is T6, Microphthalmia-associated transcription factor (Homo sapiens, UniProt O75030).
T6 sequence (O75030 whole entry): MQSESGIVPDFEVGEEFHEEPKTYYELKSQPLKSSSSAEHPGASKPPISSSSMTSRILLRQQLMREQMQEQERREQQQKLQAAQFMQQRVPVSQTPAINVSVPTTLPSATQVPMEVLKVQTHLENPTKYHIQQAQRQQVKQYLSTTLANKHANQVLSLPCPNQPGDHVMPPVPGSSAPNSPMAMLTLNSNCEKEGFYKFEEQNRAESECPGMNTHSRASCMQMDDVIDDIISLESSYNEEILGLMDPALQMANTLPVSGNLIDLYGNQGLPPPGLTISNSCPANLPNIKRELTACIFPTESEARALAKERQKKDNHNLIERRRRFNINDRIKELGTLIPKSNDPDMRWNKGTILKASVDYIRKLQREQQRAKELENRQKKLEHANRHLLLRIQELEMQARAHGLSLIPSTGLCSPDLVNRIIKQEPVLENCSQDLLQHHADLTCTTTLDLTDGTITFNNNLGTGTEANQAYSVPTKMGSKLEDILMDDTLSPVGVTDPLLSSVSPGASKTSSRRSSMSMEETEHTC
The series can be described thus: TRPM1 promoter luciferase signal decrease, dose response, MITF inhibitor project, cell-based, SK-MEL-5, cherry-picked, set 3 (AID 493073).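 Note: SK-MEL-5 melanoma cells with luciferase driven by the MITF target TRPM1 promoter.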 In kind it is functional.

A short description of series [15]: cytotoxicity toward NIH3T3 fibroblasts, dose response, counter-screen, cell-based, ATP luminescence, mouse fibroblasts (AID 2010).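 Note: cells exposed to compound for about 90 hours before reading.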 The series is classed as functional.
Series [16] can be described thus: C. albicans growth with fluconazole, confirmation, fluorescence, retest (AID 2467). The series is classed as functional, cell-based.
Series [17] is described as follows: inhibitors of intracellular T. cruzi replication, confirmation, NIH3T3 host cells, beta-gal luminescence (AID 2044).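 Note: intracellular parasites grown in NIH/3T3 mouse fibroblasts as host cells; luminescent beta-galactosidase reporter signal from transgenic T. cruzi replicating inside host cells; inhibitors lower the luminescence signal.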 The series is classed as functional, cell-based.
The target in series [18] is T7, Cytochrome P450 1A2 (Homo sapiens, UniProt P05177).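 Note: PubChem cytochrome P450 panel assay, CYP1A2 panel member.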
T7 sequence (P05177 whole entry): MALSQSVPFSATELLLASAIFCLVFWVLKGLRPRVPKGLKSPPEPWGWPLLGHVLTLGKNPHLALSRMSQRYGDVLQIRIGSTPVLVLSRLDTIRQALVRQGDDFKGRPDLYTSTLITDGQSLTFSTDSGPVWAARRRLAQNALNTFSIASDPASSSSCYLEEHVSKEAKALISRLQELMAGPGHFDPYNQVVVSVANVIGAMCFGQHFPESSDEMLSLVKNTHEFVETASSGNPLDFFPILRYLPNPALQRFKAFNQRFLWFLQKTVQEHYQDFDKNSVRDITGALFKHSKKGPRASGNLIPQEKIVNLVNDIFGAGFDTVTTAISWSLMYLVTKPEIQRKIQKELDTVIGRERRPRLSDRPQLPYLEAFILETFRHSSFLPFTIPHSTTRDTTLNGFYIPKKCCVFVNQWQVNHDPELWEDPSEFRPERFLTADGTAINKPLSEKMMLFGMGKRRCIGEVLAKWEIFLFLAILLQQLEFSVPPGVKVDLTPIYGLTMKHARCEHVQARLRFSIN

Series [19] concerns the target T8, High affinity choline transporter 1 (Homo sapiens, UniProt Q9GZV3).
T8 sequence (Q9GZV3 whole entry): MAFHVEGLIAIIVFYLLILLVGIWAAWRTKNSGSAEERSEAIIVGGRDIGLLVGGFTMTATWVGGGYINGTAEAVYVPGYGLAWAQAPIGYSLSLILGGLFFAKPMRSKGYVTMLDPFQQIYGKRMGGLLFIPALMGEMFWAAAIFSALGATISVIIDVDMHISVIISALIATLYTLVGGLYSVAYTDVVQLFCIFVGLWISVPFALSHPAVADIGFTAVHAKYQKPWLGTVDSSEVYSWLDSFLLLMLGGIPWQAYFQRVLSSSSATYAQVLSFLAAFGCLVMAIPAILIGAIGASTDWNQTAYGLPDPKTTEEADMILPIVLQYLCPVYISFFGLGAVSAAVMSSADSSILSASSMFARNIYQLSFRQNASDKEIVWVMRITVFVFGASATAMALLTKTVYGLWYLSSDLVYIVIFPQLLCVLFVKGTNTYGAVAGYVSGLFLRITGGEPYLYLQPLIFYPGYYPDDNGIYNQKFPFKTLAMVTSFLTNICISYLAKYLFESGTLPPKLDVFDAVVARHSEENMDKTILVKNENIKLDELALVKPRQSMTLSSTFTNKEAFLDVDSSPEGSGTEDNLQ
The experiment in a line: CHT inhibitors, dose response, cell-based, 5-point CRC, membrane potential dye (AID 504840). The series is classed as functional.

On to `Cc1cc(C(C)(C)CC(C)(C)C)ccc1OCCOCC[N+](C)(C)Cc1ccccc1`, for which the concentration at half-maximal activity (AC50) was 2.41 µM (active) in series [1], 7.56 µM (active) in series [4] and 20.4 µM (active) in series [5]. For the same compound, the IC50 in series [2] was 8.92 µM (active); in [3], 21.3 µM (active); in [6], 9.49 µM (active); in [7] it was 14.9 µM (active).
Consider `CNc1cc(-c2ccccc2C(F)(F)F)ncn1`, for which the AC50 result in [8] is listed as “inconclusive”.
With `O=C(C1=NN[C@@H]2C(=O)N(c3cccc(C(F)(F)F)c3)C(=O)[C@H]12)c1ccc2ccccc2n1`, the figures for the EC50 in series [9] and in series [10] were 47.9 µM (inactive) and > 99 µM (inactive), respectively.
Turning to `CN(C(=O)COC(=O)c1ccc([N+](=O)[O-])cc1N)c1ccccc1`, the EC50 in [9] and in series [10] was > 99 µM (inactive) in each case.
Regarding `O=C(Oc1ccccc1)N1CCC2(CC1)CN(C(c1ccccc1)c1ccccc1)C2`, the AC50 in [11] is 39.8 µM (inconclusive); in series [12], 31.6 µM (inconclusive); in series [8], “inconclusive”.
In the case of `COc1ccc(-c2cc(-c3ccccc3)[n+](C)c(-c3ccccc3)c2)cc1.[O-][Cl+3]([O-])([O-])[O-]`, the EC50 in series [13] is > 160 µM (inactive); in [15], > 60 µM (not active); in series [16] it was 0.57 µM (active); in series [17] it was 0.131 µM (active). The AC50 is 3.2 µM (active) in series [14] and 2.85 µM (active) in series [1].
`Cc1ccc(C(=O)N2CCN(c3ccc(C(F)(F)F)cn3)CC2)cc1`: the AC50 result in series [8] was “inconclusive”.
As to `CCCCOC(=O)c1ccc(NC(=S)NC(=O)c2c(Cl)cnn2C)cc1`, the AC50 is 39.8 µM (inconclusive) in series [18], 39.8 µM (inconclusive) in [11] and “inconclusive” in [8].
For `CCOc1ccccc1C(=O)NC(C)c1ccc2c(c1)OCO2` (centres undefined), in [19], the IC50 is 19.1 µM (active).
For the compound `CC(=O)Nc1ccc(C(=O)CSc2cc(C)c3cccc(C)c3n2)cc1`, the EC50 in series [9] and in series [10] was > 99 µM (inactive) throughout.
On to `CCc1nnc(NS(=O)(=O)c2ccc(NC(=O)c3cc(Cl)ccc3Cl)cc2)s1`, for which, in series [19], the IC50 is 12.3 µM (active).
For the compound `Cc1noc(NS(=O)(=O)c2ccc(NC(=O)COc3ccc(Cl)cc3Cl)cc2)c1C`, the IC50 in series [19] is 1.08 µM (active).
Consider `C=CCn1c(COc2cccc(C)c2)nnc1SC(C)C(=O)NC1CC1` (centres undefined), for which, in [3], the IC50 is > 100 µM (inactive).
For `Cc1cc(C(=O)N/N=C/c2ccc(-c3ccc([N+](=O)[O-])cc3C)o2)[nH]n1`, the EC50 in [9] and in series [10] was > 99 µM (inactive) throughout.
With `C/C(=N\OCC(=O)Nc1ccccc1C(=O)O)c1cccs1`, the IC50 in series [19] was 11 µM (active).
